Several values for one entry are separate records, joined by “and”; a condition that tells them apart may be missing. Equal values may be shown once. Inconclusive results and toxic doses are left out. Rule for the calls: active = survival T/C of 150% or more; inactive = T/C below 125% in these data.
System: P388 leukemia ip, CD2F1 mice, survival T/C
Experiment: NCI In Vivo Anticancer Drug Screen. Data for tumor model P388 Leukemia (intraperitoneal) in CD2F1 (CDF1) mice
Conditions: endpoint: median survival time, higher = longer survival
Method in brief: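 Mice carrying the transplanted tumor received test compound or vehicle. Survival was recorded in each group, and the value is the treated-group measurement divided by that of the vehicle-treated control group.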

[1] = dose: 50.0 mg/kg/injection, schedule: Q01DX005 (ip), vehicle: saline with Tween-80
[2] = dose: 100.0 mg/kg/injection, schedule: Q01DX005 (ip), vehicle: saline with Tween-80
[3] = dose: 200.0 mg/kg/injection, schedule: Q01DX005 (ip), vehicle: saline with Tween-80
[4] = dose: 100.0 mg/kg/injection, schedule: Q04DX002 (ip), vehicle: saline with Tween-80
[5] = dose: 200.0 mg/kg/injection, schedule: Q04DX002 (ip), vehicle: saline with Tween-80
[6] = dose: 400.0 mg/kg/injection, schedule: Q04DX002 (ip), vehicle: saline with Tween-80
[7] = dose: 12.5 mg/kg/injection, schedule: Q01DX009 (ip), vehicle: saline with Tween-80
[8] = dose: 25.0 mg/kg/injection, schedule: Q01DX009 (ip), vehicle: saline with Tween-80
[9] = dose: 50.0 mg/kg/injection, schedule: Q01DX009 (ip), vehicle: saline with Tween-80
[10] = dose: 100.0 mg/kg/injection, schedule: Q01DX009 (ip), vehicle: saline with Tween-80
[11] = dose: 200.0 mg/kg/injection, schedule: Q01DX009 (ip), vehicle: saline with Tween-80
[12] = dose: 12.5 mg/kg/injection, schedule: Q01DX009 (ip), vehicle: saline
[13] = dose: 25.0 mg/kg/injection, schedule: Q01DX009 (ip), vehicle: saline
[14] = dose: 50.0 mg/kg/injection, schedule: Q01DX009 (ip), vehicle: saline
[15] = dose: 100.0 mg/kg/injection, schedule: Q01DX009 (ip), vehicle: saline
[16] = dose: 200.0 mg/kg/injection, schedule: Q01DX009 (ip), vehicle: saline
[17] = dose: 60.0 mg/kg/injection, schedule: Q01DX005 (ip), vehicle: saline with Tween-80

Measured: T/C

O=P(C/C=C/CO)(c1ccccc1)c1ccccc1
inactive: [1] 98 % of control | [2] 98 % of control | [3] 103 % of control

O=C1OC(c2ccccc2)c2cccnc21 (centres undefined)
inactive: [4] 101 % of control | [5] 92 % of control | [6] 98 % of control

COc1ccc(OC)c(NC2=C(Cl)C(=O)C(Nc3cc(OC)ccc3OC)=C(Cl)C2=O)c1
inactive: [7] 98 % of control | [8] 97 % of control | [9] 90 % of control | [10] 87 % of control | [11] 91 % of control

COc1ccc(C(=O)/C=N/O)cc1
inactive: dose: 25.0 mg/kg/injection, schedule: Q04DX003 (ip), vehicle: saline with Tween-80 95 % of control | dose: 50.0 mg/kg/injection, schedule: Q04DX003 (ip), vehicle: saline with Tween-80 95 % of control | dose: 100.0 mg/kg/injection, schedule: Q04DX003 (ip), vehicle: saline with Tween-80 86 % of control

Cc1ccc(C2(O)c3ccccc3N=NN2C)cc1 (centres undefined)
inactive: [1] 100 % of control | [2] 100 % of control | [3] 96 % of control

CSc1cccc(NC(=O)N2CCCCC2C)c1 (centres undefined)
inactive: [9] 100 % of control | [10] 92 % of control | [11] 100 % of control

O=C(Oc1ccc[nH]c1=O)c1cc([N+](=O)[O-])cc([N+](=O)[O-])c1
inactive: [12] 99 % of control and 100 % of control | [13] 98 % of control and 107 % of control | [14] 99 % of control and 103 % of control | [15] 100 % of control | [16] 98 % of control and 101 % of control | dose: 400.0 mg/kg/injection, schedule: Q01DX009 (ip), vehicle: saline 100 % of control and 109 % of control

O=C(O)C(F)(F)F
inactive: [10] 90 % of control | [11] 95 % of control | dose: 400.0 mg/kg/injection, schedule: Q01DX009 (ip), vehicle: saline with Tween-80 90 % of control

CC[N+](C)(C)c1ccccc1
inactive: dose: 6.25 mg/kg/injection, schedule: Q04DX002 (ip), vehicle: saline 102 % of control | dose: 12.5 mg/kg/injection, schedule: Q04DX002 (ip), vehicle: saline 105 % of control | dose: 25.0 mg/kg/injection, schedule: Q04DX002 (ip), vehicle: saline 99 % of control and 102 % of control

CN1C(=O)CCCCCCCCCCSc2ccccc21
inactive: dose: 50.0 mg/kg/injection, schedule: Q01DX005 (ip), vehicle: Klucel (hydroxypropylcellulose) (HPC) 93 % of control | dose: 100.0 mg/kg/injection, schedule: Q01DX005 (ip), vehicle: Klucel (hydroxypropylcellulose) (HPC) 97 % of control | dose: 200.0 mg/kg/injection, schedule: Q01DX005 (ip), vehicle: Klucel (hydroxypropylcellulose) (HPC) 88 % of control

N#CCc1ccc(C(C#N)C(=O)CCC(=O)C(C#N)c2ccc(CC#N)cc2)cc1 (centres undefined)
inactive: [1] 100 % of control | [2] 100 % of control

O=C(N/C(=C\c1nc2ccccc2s1)c1ccccc1O)c1ccccc1
inactive: [4] 104 % of control | [5] 99 % of control | [6] 103 % of control

COC(=O)Nc1csc2c1NC(=O)CCCC2
inactive: dose: 200.0 mg/kg/injection, schedule: Q04DX003 (ip), vehicle: Klucel (hydroxypropylcellulose) (HPC) 110 % of control | dose: 400.0 mg/kg/injection, schedule: Q04DX003 (ip), vehicle: Klucel (hydroxypropylcellulose) (HPC) 105 % of control

CCN(CC)CCNc1ccc(COC(=O)Nc2ccccc2)c2sc3ccccc3c(=O)c12
inactive: dose: 6.25 mg/kg/injection, schedule: Q01DX005 (ip), vehicle: Klucel + Tween-80 111 % of control

O=C1C=CC(=O)C=C1
inactive: dose: 3.12 mg/kg/injection, schedule: Q04DX003 (ip), vehicle: saline with Tween-80 101 % of control | dose: 6.25 mg/kg/injection, schedule: Q04DX003 (ip), vehicle: saline with Tween-80 99 % of control

CC(C)(C)C1CCC(NC(=O)c2ccccc2)CC1 (centres undefined)
inactive: dose: 3.13 mg/kg/injection, schedule: Q01DX009 (ip), vehicle: saline with Tween-80 99 % of control | dose: 6.25 mg/kg/injection, schedule: Q01DX009 (ip), vehicle: saline with Tween-80 99 % of control | [7] 93 % of control | [8] 99 % of control

CN1CCN(c2ccncc2S(=O)(=O)N2CCN(C)CC2)CC1
inactive: [14] 97 % of control | [15] 97 % of control | [16] 87 % of control

O=C(O)C(Nc1ccccn1)(c1ccccc1)c1ccccc1
inactive: dose: 60.0 mg/kg/injection, schedule: Q01DX005 (ip), vehicle: Klucel (hydroxypropylcellulose) (HPC) 102 % of control | dose: 120.0 mg/kg/injection, schedule: Q01DX005 (ip), vehicle: Klucel (hydroxypropylcellulose) (HPC) 102 % of control | dose: 240.0 mg/kg/injection, schedule: Q01DX005 (ip), vehicle: Klucel (hydroxypropylcellulose) (HPC) 98 % of control

CC(=O)c1ccc2c(c1)N(CCCN1CCN(CCO)CC1)c1ccccc1S2
inactive: dose: 1.56 mg/kg/injection, schedule: Q01DX009 (ip), vehicle: saline 116 % of control | dose: 3.12 mg/kg/injection, schedule: Q01DX009 (ip), vehicle: saline 103 % of control | dose: 6.25 mg/kg/injection, schedule: Q01DX009 (ip), vehicle: saline 107 % of control | dose: 6.25 mg/kg/injection, schedule: Q04DX003 (ip), vehicle: saline 91 % of control | [12] 108 % of control | dose: 12.5 mg/kg/injection, schedule: Q04DX003 (ip), vehicle: saline 103 % of control | [13] 106 % of control | dose: 25.0 mg/kg/injection, schedule: Q04DX003 (ip), vehicle: saline 107 % of control | [14] 109 % of control | dose: 50.0 mg/kg/injection, schedule: Q04DX003 (ip), vehicle: saline 119 % of control

CC(C)N1C(=O)NC2C1NC(=O)N2C(C)C (centres undefined) (tested in a mixture with another compound)
inactive: [17] 106 % of control | dose: 120.0 mg/kg/injection, schedule: Q01DX005 (ip), vehicle: saline with Tween-80 105 % of control | dose: 240.0 mg/kg/injection, schedule: Q01DX005 (ip), vehicle: saline with Tween-80 105 % of control

COc1ccc2c(c1)C(Cc1ccc(Oc3ccc(CC4c5cc(OC)ccc5CC[N+]4(C)C)cc3)cc1)[N+](C)(C)CC2 (centres undefined)
inactive: dose: 1.56 mg/kg/injection, schedule: Q04DX003 (ip), vehicle: water 107 % of control

COc1ccc2nc3cc(Cl)ccc3c(Nc3ccc(NC(C)=O)cc3)c2n1
inactive: dose: 6.25 mg/kg/injection, schedule: Q01DX009 (ip), vehicle: other 106 % of control | dose: 12.5 mg/kg/injection, schedule: Q01DX009 (ip), vehicle: other 102 % of control | dose: 25.0 mg/kg/injection, schedule: Q01DX009 (ip), vehicle: other 100 % of control | dose: 50.0 mg/kg/injection, schedule: Q01DX009 (ip), vehicle: other 96 % of control | dose: 100.0 mg/kg/injection, schedule: Q01DX009 (ip), vehicle: other 99 % of control

Cc1cc(NC(=S)SCc2ccc(Cl)cc2)ccc1F
inactive: dose: 50.0 mg/kg/injection, schedule: Q01DX009 (ip), vehicle: suspension in saline 109 % of control | dose: 100.0 mg/kg/injection, schedule: Q01DX009 (ip), vehicle: suspension in saline 100 % of control | dose: 200.0 mg/kg/injection, schedule: Q01DX009 (ip), vehicle: suspension in saline 94 % of control

CCc1nc(N)nc(N)c1-c1ccc(NCCCN)c([N+](=O)[O-])c1
inactive: dose: 30.0 mg/kg/injection, schedule: Q01DX005 (ip), vehicle: saline with Tween-80 106 % of control | [17] 108 % of control and 110 % of control
